The values below come from US20220048915A1 (SHANGHAI PHARMACEUTICALS HOLDING CO., LTD., priority 2018, published 2022).

The subject of series [1] is BV-2 cells. Nature of the series: Inhibition of inflammation in LPS-stimulated BV-2 cells (ELISA of inflammatory factors). Format: cell-based. The settings on record: Mus musculus, 100 ng/mL LPS 4 hours; for Emax: read-out: BV-2 Max Inh. (%); for IC50: read-out: BV-2 Rf IC50. On the procedure:
Normal cultured 8th passage BV-2 cells were taken, and inoculated separately in 96-well plates at a certain cell density. The cell culture plates were cultured at 37° C. and 5% CO2 for 24 hours.
After inoculating the plate for 24 hours, the cell culture medium was removed, and then 100 μL of a 4-fold gradient dilution compound starting from 10,000 nM prepared in DMEM+10% FBS, where High control and Low control contained 0.1% DMSO without compound. With 100 μL per well, the cell culture plate was cultured at 37° C. with 5% CO2 for one hour.
The compound-containing cultures were removed. 100 ng/mL of LPS was prepared with DMEM+10% FBS culture medium, and then the compound was diluted in a 4-fold gradient from 10,000 nM with LPS-containing culture medium. In low control, the compound was replaced with 0.1% DMSO. In High control, 0.1% DMSO was prepared with culture medium without LPS. 100 μL per well, and the cell culture plates were cultured at 37° C. with 5% CO2 for 4 hours.
After 4 hours of LPS stimulation, 110 μL of the culture solution was aspirated, and centrifuged at 2000 rpm for 2 minutes. A further 90 μl of supernatant was aspirated and immediately put into −20° C. for freezing.
ELISA kits were used to detect the expression of inflammatory factors such as IL-10, TNFα, etc. The OD450 signal values were measured by microplate reader. The in vitro inhibitory activity of the compounds was calculated according to the following formula: Inhibition rate: Inhibition rate (%)=(signal value of control−signal value of administration)/(high signal value of control−low signal value of control)×100%. And according to the inhibition rate of each concentration, Graphpad Prism 5.0 was used to curve fit the […] signal values at each concentration and calculate the corresponding IC50, which is shown in Table 1.

The target of series [2] is p38β (Homo sapiens, UniProt Q15759). Nature of the series: In vitro inhibition of p38 kinase (LANCE Ultra TR-FRET). Format: biochemical. The settings on record: read-out: Kinase in vitro IC50(nM) p38β. (In TR-FRET formats the signal depends on donor and acceptor labels being close together.)
A short description of series [3]: Pharmacokinetic properties in rats. The format is in vivo, SD rats. On the procedure: Ten male SD rats, weighing 180-220 g (provided by Shanghai Xipuerbikai Laboratory Animal Co., Ltd, Certificate No.: 20130016008116). The rats were fasted for feed for 12-16 hours before the experiment but water was allowed.
Blood samples were collected from the fundus vein of rats before and at 2, 5, 15, 30, 60, 90, 120, 240, 360, 480, 600 and 1440 minutes after administration, respectively.
Blood samples were collected from the fundus vein of rats before and at 5, 15, 30, 60, 90, 120, 240, 360, 480, 600, 1440 minutes after administration respectively.
(§1) Blood samples were centrifuged at 8000 rpm for 5 minutes, and supernatant plasma was taken. To 50 μL of plasma samples was added 300 μL of acetonitrile containing internal standard (propranolol, 25 ng/mL) to precipitate the protein. After vortexing for 10 minutes and centrifuging at 6000 g and 4° C. for 10 minutes, the supernatant was taken and placed in a 96-well plate for determination of drug concentration in plasma by UPLC/MS-MS.

Series [4] in a line: Pharmacokinetic properties in mice. Format: in vivo, ICR mice. The settings on record: for absorption compared with the positive compound VX-745 at the same dose: 10 mg/kg; for Thalf (iv): iv 3 mg/kg; for Cmax / MRT / Tmax: male, ICR, mouse, plasma; for Cmax / MRT / Tmax / AUClast (po): po 10 mg/kg; for BA: po 10 mg/kg vs iv 3 mg/kg; for AUClast (po): 5-1440 minutes. On the procedure:
Forty-eight male ICR mice, weighing 18-22 g (provided by Shanghai Xipuerbikai Laboratory Animal Co., Ltd, Certificate No.: 20130016008116). The mice were […] for 12-16 hours before the experiment but water was allowed.
Blood samples were collected from the fundus vein of mice before and at 2, 5, 15, 30, 60, 90, 120, 240, 480, 600, and 1440 minutes of the administration, respectively.
Blood samples were collected from the fundus vein of mice before and at 5, 15, 30, 60, 90, 120, 240, 480 and 1440 minutes of administration, respectively.
2-3 time points were taken for each mouse. The mice were sacrificed at 5, 15, 30, 60 and 1440 minutes after the administration (3 mice per time point), and the brains were taken, rinsed with saline, dried on filter paper and weighed.
as §1

For series [5], the target named is p38α (Homo sapiens, UniProt Q16539). As to the kind of experiment: In vitro inhibition of p38 kinase (LANCE Ultra TR-FRET). The format is biochemical. The settings on record: read-out: Kinase in vitro IC50(nM) p38α.
The target of series [6] is T1, p38γ (Homo sapiens, UniProt P53778).
T1 sequence (P53778 1-367): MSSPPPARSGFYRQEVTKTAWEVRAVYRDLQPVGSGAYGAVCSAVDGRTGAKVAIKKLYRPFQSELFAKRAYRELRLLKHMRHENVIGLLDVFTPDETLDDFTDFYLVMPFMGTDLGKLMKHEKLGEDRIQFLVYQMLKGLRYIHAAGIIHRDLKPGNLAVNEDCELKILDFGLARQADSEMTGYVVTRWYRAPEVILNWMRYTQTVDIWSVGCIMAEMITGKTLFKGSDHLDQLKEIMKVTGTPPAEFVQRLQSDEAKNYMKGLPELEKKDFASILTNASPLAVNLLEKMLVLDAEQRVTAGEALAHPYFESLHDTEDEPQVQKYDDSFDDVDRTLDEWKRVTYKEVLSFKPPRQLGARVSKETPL
Described as above. Format: biochemical. The settings on record: read-out: Kinase in vitro IC50(nM) p38γ. On the procedure: 10 mM of the storage solution of the test compound was taken and placed in a 96-well compound plate, and using DMSO for the compound at an initial concentration of 100×, which was then used as the first concentration and then carried out a 3-fold gradient dilution with DMSO for a total of 10 concentrations. After that, 1 μL of gradient dilutions were added to 19 μL of 1× reaction buffer to prepare 5× compound for later use. […] To the compound-free control well was added 2 μL of the following liquid: 19 μL of 1× reaction buffer with addition of 1 μL of DMSO. To the Min control well was added 2 μL of 250 mM EDTA.
1× of LANCE® Detection value Buffer was used to prepare a 2×Antibody for use, and the amount was 5 μL per well, at the same time 10 mM EDTA was prepared for later use. After the enzyme reaction was carried out for 30 minutes, 5 μL 10 mM EDTA was added to the 384-well plate and the reaction was carried out at room temperature for 5 minutes. Afterwards, 5 μL LANCE® Ultra Europium-anti-phospho-eIF4E-binding protein 1 (Thr37/46) was added to the 384-well plate and the reaction was carried out at room temperature for one hour.

[7] abbreviates: male, SD, plasma, rat, po 6 mg/kg.

A value given as a limit tells only on which side of the number the result lay.

Sequence of p38β (Q15759 whole entry): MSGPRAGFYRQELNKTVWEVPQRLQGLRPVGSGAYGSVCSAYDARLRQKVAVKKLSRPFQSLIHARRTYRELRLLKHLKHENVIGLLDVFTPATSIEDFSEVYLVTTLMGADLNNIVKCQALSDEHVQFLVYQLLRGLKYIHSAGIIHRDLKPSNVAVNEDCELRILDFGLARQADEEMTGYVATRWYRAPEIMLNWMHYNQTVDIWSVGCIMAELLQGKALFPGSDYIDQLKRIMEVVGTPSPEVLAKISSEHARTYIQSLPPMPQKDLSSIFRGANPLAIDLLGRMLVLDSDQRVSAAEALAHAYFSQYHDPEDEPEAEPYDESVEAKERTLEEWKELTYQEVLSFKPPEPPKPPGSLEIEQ
Sequence of p38α (Q16539 whole entry): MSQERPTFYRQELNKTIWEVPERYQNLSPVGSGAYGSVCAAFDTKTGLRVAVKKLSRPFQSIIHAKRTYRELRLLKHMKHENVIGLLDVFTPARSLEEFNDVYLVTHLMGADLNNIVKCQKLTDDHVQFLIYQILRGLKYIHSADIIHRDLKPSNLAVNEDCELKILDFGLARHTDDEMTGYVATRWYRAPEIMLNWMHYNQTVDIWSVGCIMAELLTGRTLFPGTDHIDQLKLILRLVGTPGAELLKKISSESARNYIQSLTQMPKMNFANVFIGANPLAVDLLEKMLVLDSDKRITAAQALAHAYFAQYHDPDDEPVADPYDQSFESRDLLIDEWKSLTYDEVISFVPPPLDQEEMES

For `O=c1ncn2nc(Oc3cc(F)c(F)cc3F)ccc2c1-c1c(Cl)cccc1Cl` [Compound I-43], the Emax in series [1] amounted to 50.9%. The IC50 was 21.5 nM in series [1], 95.1 nM in series [2], 10.7 nM in series [5] and over 3330 nM in series [6]. In addition, the peak concentration (Cmax) in series [3] (setting [7]) was 601 ng/mL; in series [4] it was 1280 ng/mL. Besides, the MRT worked out at 4.7 h in series [3] (setting [7]) and 4.34 h in series [4]. The figures for the Tmax in series [3] (setting [7]) and in series [4] were 4 h and 2 h, respectively. Also, the “Thalf (iv)” value in series [3] (rat, iv 3 mg/kg) stood at 3.7 h; in series [4], 2.97 h. Moreover, the BA in series [3] (rat, po 6 mg/kg vs iv 3 mg/kg) is recorded as 123.3%; in series [4], 89.17%. In addition, the “AUClast (po)” value in series [3] (rat, po 6 mg/kg, 5-1440 minutes) is recorded as 2994 (h)*(ng/mL); in series [4] it was 6540 (h)*(ng/mL). The “absorption compared with the positive compound VX-745 at the same dose” value in series [3] (rats, 6 mg/kg) is reported as “better”; in series [4], “better”.

Regarding `O=c1ncn2nc(Oc3ccc(F)cc3F)ccc2c1-c1c(F)cccc1Cl` [Compound I-62, 5-(2-chloro-6-fluorophenyl)-2-(2,4-difluorophenoxy)-6H-pyrimido[1,6-b]pyridazin-6-one], in series [1], the Emax amounted to 48.6% and the IC50 worked out at 14.2 nM. The IC50 in series [2] was determined as 101 nM. In series [4], the “absorption compared with the positive compound VX-745 at the same dose” value is “better”, the “Thalf (iv)” value was determined as 3.32 h, the peak level (Cmax) was 1600 ng/mL and the MRT was 3.18 h. In addition, in series [4], the Tmax was determined as 1 h, the BA was 103.4% and the “AUClast (po)” value is reported as 4522 (h)*(ng/mL). In addition, in series [5], the IC50 was found to be 12.1 nM. For the same molecule, the IC50 in series [6] was over 3330 nM.

For `O=c1ncn2nc(Oc3c(F)ccc(F)c3Cl)ccc2c1-c1c(Cl)cccc1Cl` [Compound I-29, 2-(2-chloro-3,6-difluorophenoxy)-5-(2,6-dichlorophenyl)-6H-pyrimido[1,6-b]pyridazin-6-one], the Emax in series [1] was -50%. For the same molecule, the concentration for half-maximal inhibition (IC50) in series [1] is 678 nM; in series [2] it was 406 nM; in series [5] it was 34.1 nM; in series [6], over 3330 nM.

In the case of `O=c1ncn2nc(Oc3ccc(Br)cc3)ccc2c1-c1c(Cl)cccc1Cl` [Compound I-39, 2-(4-bromophenoxy)-5-(2,6-dichlorophenyl)-6H-pyrimido[1,6-b]pyridazin-6-one], in series [1], the Emax was 56.6%. The IC50 in series [1] was 296 nM; in series [2] it was 602 nM; in series [5], 35.6 nM; in series [6], over 3330 nM.

With `O=c1ncn2nc(Oc3ccc(F)cc3Cl)ccc2c1-c1c(Cl)cccc1Cl` [Compound I-18, 2-(2-chloro-4-fluorophenoxy)-5-(2,6-dichlorophenyl)-6H-pyrimido[1,6-b]pyridazin-6-one], in series [1], the Emax turned out to be 50.6%. Further, the IC50 in series [1] was 8.58 nM; in series [2], 97.1 nM; in series [5], 14.8 nM; in series [6], over 3330 nM.

On to `O=c1ncn2nc(Oc3cc(Br)ccc3Cl)ccc2c1-c1c(Cl)cccc1Cl` [Compound I-16, 2-(5-bromo-2-chlorophenoxy)-5-(2,6-dichlorophenyl)-6H-pyrimido[1,6-b]pyridazin-6-one], for which the Emax in series [1] worked out at 44.2%. Also, the IC50 in series [1] was 6.19 nM; in series [2], 109 nM; in series [5], 25.9 nM; in series [6], over 3330 nM.

As for `O=c1ncn2nc(Oc3cc(F)ccc3F)ccc2c1-c1c(Cl)cccc1Cl` [Compound I-21, 5-(2,6-dichlorophenyl)-2-(2,5-difluorophenoxy)-6H-pyrimido[1,6-b]pyridazin-6-one], in series [1], the Emax came out at 51.3%. The IC50 in series [1] is 19.2 nM; in series [2], 226 nM; in series [5], 27.7 nM; in series [6], over 3330 nM.

For the molecule `O=c1ncn2nc(Oc3ccc(F)c(F)c3F)ccc2c1-c1c(Cl)cccc1Cl` [Compound I-40], the Emax in series [1] was found to be 47.7%. For the same molecule, the IC50 in series [1] is 41.5 nM; in series [2], 111 nM; in series [5], 23 nM; in series [6] it was over 3330 nM.

In the case of `O=c1ncn2nc(Oc3cccc(Cl)c3Cl)ccc2c1-c1c(Cl)cccc1Cl` [Compound I-12, 2-(2,3-dichlorophenoxy)-5-(2,6-dichlorophenyl)-6H-pyrimido[1,6-b]pyridazin-6-one], the Emax in series [1] is 49.5%. In addition, the IC50 is 176 nM in series [1], 302 nM in series [2], 32.8 nM in series [5] and over 3330 nM in series [6].

In the case of `O=c1ncn2nc(Oc3ccc(F)c(Br)c3)ccc2c1-c1c(Cl)cccc1Cl` [Compound I-5, 2-(3-bromo-4-fluorophenoxy)-5-(2,6-dichlorophenyl)-6H-pyrimido[1,6-b]pyridazin-6-one], the Emax in series [1] came out at 44%. In addition, the IC50 in series [1] is 94.3 nM; in series [2], 389 nM; in series [5], 49.3 nM; in series [6] it was over 3330 nM.

Take `O=c1ncn2nc(Oc3ccccc3F)ccc2c1-c1c(Cl)cccc1Cl` [Compound I-27, 5-(2,6-dichlorophenyl)-2-(2-fluorophenoxy)-6H-pyrimido[1,6-b]pyridazin-6-one]: in series [1], the Emax was found to be 41.9%. The IC50 in series [1] was 18.8 nM; in series [2] it was 109 nM; in series [5], 11.7 nM; in series [6], over 3330 nM.

What is called IC50 is the concentration needed to halve the response being measured. One may read the Cmax as the maximum level reached in the sampled fluid or tissue. As a reminder, the MRT is a mean duration of stay, worked out from the concentration-time curve. In general, Tmax refers to the time from dosing to the highest level.
